Laboratory results: patent EP4316456A1, “BIOLOGICALLY ACTIVE QUADROCOMPLEX FOR REGULATING THE BIODIVERSITY OF SKIN MICROBIOTA” (SkyLab AG, priority 2021, dated 2022)

Experiments:
[1] = test system: Staphylococcus epidermidis; assay: Effect of antibacterial basic samples on growth of hand skin microflora, double dilution method; assay type: cell-based; set-up: key: ++: no growth; +: depressed growth in most areas; +: retarded growth in some areas; confluent growth-of test microorganisms; details: 5% solution of sample in purified water with 0.5% Tween 80, 30 minutes; 48 hours at 37 degrees Celsius
Method: (§1) A mixture consisting of purified water and 0.5% Tween 80 was used as a base to include the components of the complex. Samples were prepared using a magnetic stirrer by solubilizing the components of the quad complex in Tween 80 and gradually introducing them into purified water at 350 rpm. The stability of the samples was evaluated visually, by the absence of separation of the fatty phase from the aqueous solution. 2 strains of microorganisms of normal microflora, widely represented on the skin of the hands, were selected: Staphylococcus epidermidis and Micrococcus luteus. Microorganisms of transient opportunistic microflora present on the skin of the hands were also selected: Staphylococcus aureus, Escherichia coli and fungi of Candida albicans genus. Microorganisms were obtained by washing from the skin of the hands of subjects or using standard strains, cultivating isolated microorganisms and counting the number of grown colonies of microorganisms. The method of the analysis is based on the double dilution method and consists in preparing a suspension of bacterial cells of selected microorganisms (S. aureus, E. coli, C. albicans, S. epidermidis, M. luteus) separately at a concentration of 1×10^9 cells/ml. Next, 0.2 ml of a suspension of bacterial cells is added to 1.8 ml of a 5% solution of antibacterial components. In 30 minutes, 1 ml of the resulting mixture is added to a test tube with 9 ml of sterile saline 0.9%. In 15 more minutes, a series of dilutions is prepared in sterile saline to a concentration of 10^3 cells/ml. 0.1 ml of a solution of the initial concentration and successive dilutions is added to the surface of cups with a special nutrient medium for the growth of selected microorganisms separately. The cultures are incubated for 48 hours at 37 degrees Celsius and the colonies are counted by the standard method. The parameter for the overall assessment of the effect of the biologically active quad complex on the growth of representatives of the normal microflora was the presence or no growth of microorganisms, determined by the microbiologist based on the results of the study. The indicator of bacterial growth allows evaluating the effect of microflora on microorganisms and drawing a conclusion about the effect of the quad complex on the microflora of hand skin. The general positive trend in the use of the components of the claimed quad complex is the absence of a negative effect on the normal microflora of the skin of the hands and a pronounced antibacterial effect on the transient microflora, which will ensure the maintenance of natural non-pathogenic microflora for dermatological comfort and hygiene of hand skin.

Staphylococcus aureus [2] = assay: as above; assay type: cell-based; set-up: key: ++: no growth; +: depressed growth in most areas; +: retarded growth in some areas; confluent growth-of test microorganisms; details: 5% solution of sample in purified water with 0.5% Tween 80, 30 minutes; 48 hours at 37 degrees Celsius
Method: as §1

Candida albicans [3] = assay: as above; assay type: cell-based; set-up: key: ++: no growth; +: depressed growth in most areas; +: retarded growth in some areas; confluent growth-of test microorganisms; details: 5% solution of sample in purified water with 0.5% Tween 80, 30 minutes; 48 hours at 37 degrees Celsius
Method: as §1

Escherichia coli [4] = assay: as above; assay type: cell-based; set-up: key: ++: no growth; +: depressed growth in most areas; +: retarded growth in some areas; confluent growth-of test microorganisms; details: 5% solution of sample in purified water with 0.5% Tween 80, 30 minutes; 48 hours at 37 degrees Celsius
Method: as §1

Micrococcus luteus [5] = assay: as above; assay type: cell-based; set-up: key: ++: no growth; +: depressed growth in most areas; +: retarded growth in some areas; confluent growth-of test microorganisms; details: 5% solution of sample in purified water with 0.5% Tween 80, 30 minutes; 48 hours at 37 degrees Celsius
Method: as §1

[6] = octanol to water; average logP for the essential oil; source not stated; cited from earlier work
[7] = test system: Staphylococcus epidermidis; assay: Effect of antibacterial basic samples on growth of hand skin microflora, double dilution method; assay type: cell-based; set-up: key: +: confluent growth-of test microorganisms as in the control; +: retarded or depressed growth; -: no growth; details: 5% solution of sample in purified water with 0.5% Tween 80, 30 minutes; 48 hours at 37 degrees Celsius
Method: as §1

Staphylococcus aureus [8] = assay: as above; assay type: cell-based; set-up: key: +: confluent growth-of test microorganisms as in the control; +: retarded or depressed growth; -: no growth; details: 5% solution of sample in purified water with 0.5% Tween 80, 30 minutes; 48 hours at 37 degrees Celsius
Method: as §1

Candida albicans [9] = assay: as above; assay type: cell-based; set-up: key: +: confluent growth-of test microorganisms as in the control; +: retarded or depressed growth; -: no growth; details: 5% solution of sample in purified water with 0.5% Tween 80, 30 minutes; 48 hours at 37 degrees Celsius
Method: as §1

Escherichia coli [10] = assay: as above; assay type: cell-based; set-up: key: +: confluent growth-of test microorganisms as in the control; +: retarded or depressed growth; -: no growth; details: 5% solution of sample in purified water with 0.5% Tween 80, 30 minutes; 48 hours at 37 degrees Celsius
Method: as §1

Micrococcus luteus [11] = assay: as above; assay type: cell-based; set-up: key: +: confluent growth-of test microorganisms as in the control; +: retarded or depressed growth; -: no growth; details: 5% solution of sample in purified water with 0.5% Tween 80, 30 minutes; 48 hours at 37 degrees Celsius
Method: as §1

Compound | growth of test-strain [1] | growth of test-strain (Staphylococcus aureus [2]) | growth of test-strain (Candida albicans [3]) | growth of test-strain (Escherichia coli [4]) | growth of test-strain (Micrococcus luteus [5]) | logP [6] | growth of test-strain [7] | growth of test-strain (Staphylococcus aureus [8]) | growth of test-strain (Candida albicans [9]) | growth of test-strain (Escherichia coli [10]) | growth of test-strain (Micrococcus luteus [11])
CC12CCC(CC1)C(C)(C)O2 [1,8-cineol 0,15%, 1,8-cineol] | - | - | - | + | - | 2.82 |  |  |  |  | 
CC(C)=CCC[C@](C)(O)[C@@H]1CC=C(C)CC1 [Alpha-bisabolol 0,10%, alpha-bisabolol] | - | + | - | + | - | 3.80 |  |  |  |  | 
CCO [Ethyl alcohol 96%, Ethyl alcohol] |  |  |  |  |  |  | ++ | ++ | ++ | ++ | ++
OO [Hydrogen peroxide 3%, Hydrogen peroxide] | + | + | + | + | + |  |  |  |  |  | 
Benzalkonium chloride [Benzalkonium chloride 0,1%] |  |  |  |  |  |  | ++ | ++ | ++ | ++ | ++
